The source of these data is US11760755B2, “Hepatitis B antiviral agents” (priority 2019, dated 2023).

Usually pEC50 stands for the negative decadic logarithm of the EC50, by convention in mol/L. The term EC50 denotes the concentration that produces a half-maximal response. As usually defined, the CC50 is the concentration that lowers cell viability or growth by half.

Series [1] relates to HBV. The series is described as follows: HepAD38 antiviral assay: reduction of viral product accumulation (virion DNA by qPCR, HBsAg/HBeAg by ELISA). To be noted: for pEC50: HepAD38 cells, 50% reduction of viral product accumulation relative to no drug controls, read-out: HepAD38 EC50; for EC50: HePAD38, read-out: HepAD38 EC50 (μM). Type of series: cell-based, hepatitis B virus. The method, then:
Methods: HepAD38 cells are maintained as previously reported (Ladner et al, Antimicrob. Agents Chemother. 1997, […], 1715). Briefly, cells are passaged upon attaining confluency in DMEM/F12 media in the presence of 10% FBS, Penn/Strep, 250 μg/mL G418, and 1 μg/ml tetracycline. Novel compounds are screened by first washing cells three times with PBS to remove tetracycline, and plating in 96 well plates at 35,000 cells/well. Compounds dissolved in DMSO are then diluted 1:200 into wells containing cells. Five days after compound addition, material is harvested for analysis. For an extended 8 day analysis, cells are plated and treated as described above, but media and compound are refreshed on d2 and d5 post initial treatment.
On harvest day, virion DNA is obtained by lysing with Sidestep Lysis and Stabilization Buffer and then quantified via quantitative real time PCR. Commercially available ELISA kits are used to quantitate the viral proteins HBsAg (Alpco) or HbeAg (US Biological) by following the manufacturer's recommended protocol after diluting samples to match the linear range of their respective assays. Irrespective of readout, compound concentrations that reduce viral product accumulation in the cell lysates or supernatants by 50% relative to no drug controls (EC50) are reported; EC50 ranges are as follows: A<0.1 μM; B 0.1-1 μM; C>1 μM.
In general terms: Quantitative PCR measures a nucleic acid by following its amplification.

Series [2] is described as follows: Compound toxicity, ATPLite total ATP levels. Format: cell-based. The following applies: human. The method, then: (§1) Compound toxicity is evaluated by seeding cells at 15,000 cells/well and treating with compound as described above.
On the technique in general: Cellular ATP, detected with luciferase, serves as a proxy for viable cell number.

The test system of series [3] is HepG2. The series is described as follows: Compound toxicity, ATPLite total ATP levels. Format: cell-based. To be noted: human, 3 days. The method, then: as §1
The mark [4] stands for this setting: Hepatitis B virus, numeric bound.
Where [5] appears, read: Hepatitis B virus, class symbols.
Setting [6] is: HepG2 cells, HepG2, three days after compound addition, 50% reduction of total ATP levels (ATPLite), read-out: HepG2 CC50.

The structures appear in SMILES notation. pEC50: −log10 of the molar value. Where two headings read alike, the source gives them in different places.

Take `O=C(N[C@H]1CC2=C(c3ccn(C(F)F)n3)[C@H](c3ccc(F)cc3Cl)N=C(c3nccs3)N2C1)N1[C@@H]2CC[C@H]1C[C@@H](O)C2` [Example 5]: the pEC50 in series [1] (setting [4]) is < 6.40.
Turning to `O=C(N[C@H]1CC2=C(c3ccn(C(F)F)n3)[C@H](c3ccc(F)cc3Cl)N=C(c3nccs3)N2C1)N1C[C@H]2CC[C@@H](C1)[C@H]2O` [Example 7], the pEC50 in series [1] (setting [5]) was 6.00 to 7.00.
Same read-out and setting: the result for `O=S(=O)(NC1CC2CCC(C1)C2O)N[C@H]1CC2=C(c3ccn(C(F)F)n3)[C@H](c3ccc(F)cc3Cl)N=C(c3nccs3)N2C1` (stereo partly shown) [Example 12] reads 6.00 to 7.00; that for `O=S(=O)(N[C@H]1CC2=C(c3ccn(C(F)F)n3)[C@H](c3ccc(F)cc3Cl)N=C(c3nccs3)N2C1)N1CC2CCC(C1)O2` [Example 2], > 7.00.
Turning to `O=S(=O)(N[C@H]1CC2=C(c3ccn(C(F)F)n3)[C@H](c3ccc(F)cc3Cl)N=C(c3nccs3)N2C1)N1C2CCC1CC(O)(c1ccccn1)C2` (stereo partly shown) [Example 19], the EC50 in series [1] (Hepatitis B virus) is < 0.1 µM.
Take `O=S(=O)(N[C@H]1CC2=C(c3ccn(C(F)F)n3)[C@H](c3ccc(F)cc3Cl)N=C(c3nccs3)N2C1)N1C2CCC1CC(O)(c1cn(-c3ccccn3)nn1)C2` (stereo partly shown) [Example 24]: the EC50 in series [1] (Hepatitis B virus) was < 0.1 µM. Further, in series [2] (HepG2 CC50 (μM)), the CC50 at 3 days was > 25 µM.
Consider `O=C1CC2CC[C@@H](C1)[C@H]2S(=O)(=O)N[C@H]1CC2=C(c3ccn(C(F)F)n3)[C@H](c3ccc(F)cc3Cl)N=C(c3nccs3)N2C1` [Example 33], for which the negative logarithm of the EC50 (pEC50) in series [1] (setting [5]) is > 7.00. Besides, the CC50 at 3 days in series [2] (setting [6]) was > 25 µM.
Turning to `O=S(=O)(N[C@H]1CC2=C(c3ccn(C(F)F)n3)[C@H](c3ccc(F)cc3Cl)N=C(c3nccs3)N2C1)N1C2CCC1CC(O)C2` (single isomer, unassigned) [Example 1], in series [1] (Hepatitis B virus), the EC50 was < 0.1 µM. For the same compound, in series [3], the CC50 lay within 10 to 25 µM.
For `O=S(=O)(N[C@H]1CC2=C(c3ccn(C(F)F)n3)[C@H](c3ccc(F)cc3Cl)N=C(c3nccs3)N2C1)N1CC2CCC(C1)C2O` (stereo partly shown) [Example 15], the pEC50 in series [1] (setting [5]) is > 7.00.
As for `CC(C)(C)OC(=O)N1C2CCC1CC(NS(=O)(=O)N[C@H]1CC3=C(c4ccn(C(F)F)n4)[C@H](c4ccc(F)cc4Cl)N=C(c4nccs4)N3C1)C2` (stereo partly shown) [Example 11], the EC50 in series [1] (Hepatitis B virus) is 0.1 to 1 µM.
The same measure, in the same setting: the result for `O=S(=O)(N[C@H]1CC2=C(c3ccn(C(F)F)n3)[C@H](c3ccc(F)cc3Cl)N=C(c3nccs3)N2C1)N1C2CCC1CC(O)(c1nccs1)C2` (stereo partly shown) [Example 20] reads < 0.1 µM.
Regarding `O=S(=O)(N[C@H]1CC2=C(c3ccn(C(F)F)n3)[C@H](c3ccc(F)cc3Cl)N=C(c3nccs3)N2C1)N1CC2CCC(C1)C2(O)c1ccccn1` (stereo partly shown) [Example 14], the pEC50 in series [1] (setting [5]) is > 7.00.
Consider `O=S(=O)(N[C@H]1CC2=C(c3ccn(C(F)F)n3)[C@H](c3ccc(F)cc3Cl)N=C(c3nccs3)N2C1)[C@H]1CC2CCC(C1)[C@]2(O)c1ccccn1` [Example 18], for which, in series [1] (setting [5]), the pEC50 is > 7.00. In addition, the CC50 at 3 days in series [2] (setting [6]) was in the range of 10 to 25 µM.
Consider `O=S(=O)(N[C@H]1CC2=C(c3ccn(C(F)F)n3)[C@H](c3ccc(F)cc3Cl)N=C(c3nccs3)N2C1)N1C2CCC1CC(O)(Cn1ccnc1)C2` (stereo partly shown) [Example 30], for which the EC50 in series [1] (Hepatitis B virus) is < 0.1 µM.
On to `O=S(=O)(N[C@H]1CC2=C(c3ccn(C(F)F)n3)[C@H](c3ccc(F)cc3Cl)N=C(c3nccs3)N2C1)N1C2CCC1CC(O)C2` (single isomer, unassigned) [Example 3], for which, in series [1] (class symbols), the pEC50 is > 7.00. In series [3], the CC50 is > 25 µM.
As for `O=C1NCC2(CC3CCC(C2)N3S(=O)(=O)N[C@H]2CC3=C(c4ccn(C(F)F)n4)[C@H](c4ccc(F)cc4Cl)N=C(c4nccs4)N3C2)O1` (stereo partly shown) [Example 21], the EC50 in series [1] (Hepatitis B virus) is < 0.1 µM. Also, the CC50 at 3 days in series [2] (HepG2 CC50 (μM)) was > 25 µM.
With `O=S(=O)(N[C@H]1CC2=C(c3ccn(C(F)F)n3)[C@H](c3ccc(F)cc3Cl)N=C(c3nccs3)N2C1)N1C2CCC1CC(O)(c1nccs1)C2` (stereo partly shown) [Example 23], the pEC50 in series [1] (class symbols) is > 7.00. In addition, the CC50 at 3 days in series [2] (HepG2 CC50 (μM)) is > 25 µM.
In the case of `O=S(=O)(N[C@H]1CC2=C(c3ccn(C(F)F)n3)[C@H](c3ccc(F)cc3Cl)N=C(c3nccs3)N2C1)N1C2CCC1CC(F)(F)C2` [Example 10], in series [1] (Hepatitis B virus), the EC50 was < 0.1 µM.
On the same count and under the same terms, the result for `O=C(N[C@H]1CC2=C(c3ccn(C(F)F)n3)[C@H](c3ccc(F)cc3Cl)N=C(c3nccs3)N2C1)N1[C@@H]2CC[C@H]1C[C@H](O)C2` [Example 8] reads 0.1 to 1 µM.
For `O=C1CC2CCC(C1)N2S(=O)(=O)N[C@H]1CC2=C(c3ccn(C(F)F)n3)[C@H](c3ccc(F)cc3Cl)N=C(c3nccs3)N2C1` [Example 9], the EC50 in series [1] (Hepatitis B virus) is < 0.1 µM. In addition, the CC50 at 3 days in series [2] (HepG2 CC50 (μM)) was > 25 µM.
Regarding `O=S(=O)(N[C@H]1CC2=C(c3ccn(C(F)F)n3)[C@H](c3ccc(F)cc3Cl)N=C(c3nccs3)N2C1)N1C2CC[C@H]1C[C@](O)(c1cn(-c3ccccn3)nn1)C2` [Example 31], in series [1] (Hepatitis B virus), the EC50 was < 0.1 µM.
As to `C#C[C@]1(O)C2CCC1C[C@@H](S(=O)(=O)N[C@H]1CC3=C(c4ccn(C(F)F)n4)[C@H](c4ccc(F)cc4Cl)N=C(c4nccs4)N3C1)C2` [Example 26], in series [1] (setting [5]), the pEC50 is > 7.00.
Consider `O=S(=O)(N[C@H]1CC2=C(c3ccn(C(F)F)n3)[C@H](c3ccc(F)cc3Cl)N=C(c3nccs3)N2C1)[C@H]1CC2CCC(C1)[C@]2(O)CO` [Example 27], for which the pEC50 in series [1] (setting [5]) is > 7.00. Also, in series [2] (setting [6]), the CC50 at 3 days is > 25 µM.
With `C#CC1(O)CC2CCC(C1)N2S(=O)(=O)N[C@H]1CC2=C(c3ccn(C(F)F)n3)[C@H](c3ccc(F)cc3Cl)N=C(c3nccs3)N2C1` (stereo partly shown) [Example 22], the EC50 in series [1] (Hepatitis B virus) was < 0.1 µM.
As for `O=S(=O)(N[C@H]1CC2=C(c3ccn(C(F)F)n3)[C@H](c3ccc(F)cc3Cl)N=C(c3nccs3)N2C1)[C@@H]1CC2CC[C@@H](C1)[C@@]2(O)c1cn(-c2ccccn2)nn1` [Example 28], the pEC50 in series [1] (setting [5]) was > 7.00.
As for `C[C@]1(O)C2CCC1C[C@@H](S(=O)(=O)N[C@H]1CC3=C(c4ccn(C(F)F)n4)[C@H](c4ccc(F)cc4Cl)N=C(c4nccs4)N3C1)C2` [Example 25], the pEC50 in series [1] (setting [5]) is > 7.00.
Still for that read-out and setting: the result for `O=C1C2CCC1CC(S(=O)(=O)N[C@H]1CC3=C(c4ccn(C(F)F)n4)[C@H](c4ccc(F)cc4Cl)N=C(c4nccs4)N3C1)C2` (stereo partly shown) [Example 16] reads 6.00 to 7.00.
On to `O=S(=O)(C[C@H]1CC2=C(c3ccn(C(F)F)n3)[C@H](c3ccc(F)cc3Cl)N=C(c3nccs3)N2C1)N1C2CC[C@H]1C[C@@](O)(c1ccccn1)C2` [Example 38], for which the EC50 in series [1] (Hepatitis B virus) was in the range of 0.1 to 1 µM.
With `O=C(N[C@H]1CC2=C(c3ccn(C(F)F)n3)[C@H](c3ccc(F)cc3Cl)N=C(c3nccs3)N2C1)N1CC2CCC(C1)O2` [Example 4], in series [1] (setting [4]), the pEC50 was < 6.40.
Consider `O=S(=O)(N[C@H]1CC2=C(c3ccn(C(F)F)n3)[C@H](c3ccc(F)cc3Cl)N=C(c3nccs3)N2C1)N1C2CC[C@H]1C=C(c1cn(-c3ccccn3)nn1)C2` [Example 32], for which, in series [1] (Hepatitis B virus), the EC50 is < 0.1 µM. For the same compound, the CC50 at 3 days in series [2] (HepG2 CC50 (μM)) was > 25 µM.
In the case of `O=S(=O)(N[C@H]1CC2=C(c3ccn(C(F)F)n3)[C@H](c3ccc(F)cc3Cl)N=C(c3nccs3)N2C1)[C@H]1C2CC[C@H]1C[C@@](O)(c1ccccn1)C2` [Example 34], the pEC50 in series [1] (setting [5]) is > 7.00.
Still for that read-out and setting: the result for `O=S(=O)(C[C@H]1CC2=C(c3ccn(C(F)F)n3)[C@H](c3ccc(F)cc3Cl)N=C(c3nccs3)N2C1)N1CC2CC[C@@H](C1)[C@]2(O)c1ccccn1` [Example 37] reads > 7.00.
Turning to `O=S(=O)(N[C@H]1CC2=C(c3ccn(C(F)F)n3)[C@H](c3ccc(F)cc3Cl)N=C(c3nccs3)N2C1)[C@H]1C2CC[C@H]1C[C@@](O)(CO)C2` [Example 35], the pEC50 in series [1] (setting [5]) is > 7.00. In addition, the CC50 at 3 days in series [2] (setting [6]) was > 25 µM.
On to `O=C(N[C@H]1CC2=C(c3ccn(C(F)F)n3)[C@H](c3ccc(F)cc3Cl)N=C(c3nccs3)N2C1)N1C[C@H]2CC[C@@H](C1)[C@@H]2O` [Example 6], for which the pEC50 in series [1] (setting [5]) is 6.00 to 7.00.
Take `O=S(=O)(N[C@H]1CC2=C(c3ccn(C(F)F)n3)[C@H](c3ccc(F)cc3Cl)N=C(c3nccs3)N2C1)[C@H]1CC2CCC(C1)[C@H]2O` [Example 17]: the pEC50 in series [1] (setting [5]) was > 7.00. Also, in series [2] (setting [6]), the CC50 at 3 days is 10 to 25 µM.
As for `CN([C@H]1CC2=C(c3ccn(C(F)F)n3)[C@H](c3ccc(F)cc3Cl)N=C(c3nccs3)N2C1)S(=O)(=O)N1C2CC[C@H]1C[C@@](O)(c1nccs1)C2` [Example 36], the EC50 in series [1] (Hepatitis B virus) was < 0.1 µM. In addition, in series [2] (HepG2 CC50 (μM)), the CC50 at 3 days was > 25 µM.
